According to publication PMC12004451, “Characterization of the Two-Domain Peptide Binding Mechanism of the Human CGRP Receptor for CGRP and the Ultrahigh Affinity ssCGRP Variant” (Biochemistry, 2025):
Ends that are not written are not given here.

Columns and labels:
[1] = cited from earlier work
Text: Our analysis of the ssCGRP agonist and its truncated antagonist forms advance our understanding of their potential as long-acting therapeutics. It is widely accepted that long residence time is a desirable property of drugs.[61],[62] This is particularly true for antagonists, but there can also be value in long residence time GPCR agonists.[63],[64] […] The ssCGRP(8-37) antagonist has a CGRPR residence-time longer than the plasma half-life and the ssCGRP agonist can signal for longer than t ...

[2] = system: CGRPR (CLR:RAMP1) in COS-7 cells; experiment: CAMYEL cAMP biosensor competition assay with N-terminal TMD-binding agonist AM(13-36); assay type: cell-based, human; conditions: 30 μM, end point cAMP biosensor assay
Procedure: COS-7 cells were seeded in a 96-well white plate (Corning; Costar 3917) with a density of 20,000 cell/well, 100 μL/well, and incubated at 37 °C and 5% CO2 for 24 h. Cells were transiently transfected with 250 ng DNA total with 25 ng CLR, 25 ng RAMP, 125 ng CAMYEL biosensor, 75 ng empty pcDNA3.1(+) vector, and 375 ng branched PEI per well. Transfected cells were incubated at 37 °C and 5% CO2. […] The preincubation was followed by addition of coelenterazine h (10 μM) and simultaneous addition of 30 μM AM(13-36) agonist and antagonist as indicated, and incubated for 1 h at room temperature in total volume of 50 μL. Emissions at 475 and 535 nm were read in a PHERAstar FS plate reader (BMG Labtech, Ortenberg, Germany). The buffer control (no ligand) was subtracted from each data set and plotted with the corresponding 475/535 BRET ratio in GraphPad Prism.

[3] = system: calcitonin receptor (CTR) ECD; conditions: cited from earlier work
Text: Similar to ssCGRP, the C-terminal segment of sCT has increased affinity for the receptor ECD, bein ...

## CC(C)C[C@H](NC(=O)CNC(=O)[C@H](C)NC(=O)[C@H](CC(C)C)NC(=O)[C@H](CCCNC(=N)N)NC(=O)[C@H](Cc1cnc[nH]1)NC(=O)[C@@H](NC(=O)[C@@H](NC(=O)[C@@H]1CSSC[C@H](NC(=O)[C@H](C)N)C(=O)N[C@@H](CC(=O)O)C(=O)N[C@@H]([C@@H](C)O)C(=O)N[C@@H](C)C(=O)N[C@@H]([C@@H](C)O)C(=O)N1)C(C)C)[C@@H](C)O)C(=O)N[C@@H](CC(C)C)C(=O)N[C@@H](CO)C(=O)N[C@@H](CCCNC(=N)N)C(=O)N[C@@H](CO)C(=O)NCC(=O)NCC(=O)N[C@H](C(=O)N[C@H](C(=O)N[C@@H](CCCCN)C(=O)N[C@@H](CC(N)=O)C(=O)N[C@@H](CC(N)=O)C(=O)N[C@@H](Cc1ccccc1)C(=O)N[C@H](C(=O)N1CCC[C@H]1C(=O)N[C@H](C(=O)N[C@@H](CC(N)=O)C(=O)N[C@H](C(=O)NCC(=O)N[C@@H](CO)C(=O)N[C@@H](CCCCN)C(=O)N[C@@H](C)C(=O)N[C@@H](Cc1ccccc1)C(N)=O)C(C)C)[C@@H](C)O)C(C)C)C(C)C)C(C)C [CGRP(1-37), αCGRP(1-37)]
[1]
  plasma half-life: ~20 min

## AM(13-36): C-terminally truncated adrenomedullin agonist comprising the TMD-binding portion (SFGCRFGTCTVQKLAHQIYQFTDK; ends and bridges not checked; cysteine pairing not given here; UniProt P35318 107-130, looked up, fragment)
[2]
  agonism of the CGRPR (cAMP): agonism

## Salmon calcitonin [sCT]
[3]
  higher affinity of C-terminal segment for receptor ECD than hCT: ~50 fold
